Publication PMC2365101, “Anti-Inflammatory Activity of (Polyphenolic)-Sulfonates and Their Sodium Salts in Rodents” (Metal-Based Drugs, 1998)

How the values were obtained:
[1] = tested on: CF1 male mice, LPS Salmonella abortus equi induced death; experiment: Protection against septic shock (LPS induced endotoxic shock); assay type: in vivo; details: for Percent Survival at 52 hr: LPS 10 mg/kg, CF1 male mice, N=6
Description: (§1) Few reports in the literature indicate interaction at these receptor sites other than by peptides or antibodies. […] Blocking these receptors is desirable because the entire inflammation cascade of events is triggered by the early release of TNFa and IL-1. […] Radioisotopes were obtained from New England Nuclear [Dupont, Boston, MA] and substrates and co- factors were obtained from Sigma Chemical Co. [St. Louis, MO]. […] Cell lines were obtained from American Type Culture Collection [Rockville, MD]. In Vivo Tests Anti-inflammatory screen in mice: Male CF male mice weighing 28-32g obtained from Jackson Lab. [Bar Harbor, […]] were used to screen agents at 8 or 16 mg/kg intraperitoneal [I.P.] x 2 administered 3 hr and 30 min prior to administering the irritant, according to Winter's protocol. Evaluation of the induced edema was made by injecting 2% carrageenan in 0.9% saline into the plantar region of the foot. The opposite foot injected with 0.9% isotonic saline was used as a base line. […] Salmonella abortus equi [Lot # 69F4003] […] Drugs from 2 to 16 mg/kg, I.P. were administered 2 hr prior and 2 hr post-injection of the LPS and then subsequently for every 24 hr for the length ofthe animals' lives. Deaths were recorded every 12 hr and continued for 96 hr. […] In vitro TNFa andIL-1 Measurements and Cellular Regulation IC-21 mouse macrophages were maintained in RPMI-1640 + 10% FCS + P/S. After the cells had grown to confluency, E. coli LPS at 10 Ixg/ml was added to the medium. Agents were incubated at 12.5 to 100 µM final concentration for 18 hr. The medium (100 btl) was collected for TNFCt determinations. Interleukin-1 [IL-1] release was determined using P388D1 cells which were maintained in RPMI-1640 + 10% FCS + P/S. The L929 bioassay was used to quantitate the TNF and the IL-1 levels. The L929 mouse fibroblasts were grown in DMEM + 10% FCS + P/S to confluency in 96 well plates and incubated with 100 tl ofmedium from […] or P388D cells after 18 hr. The cells were stained with 0.2% crystal violet in 20% MeOH and read at 580 nm using a Molecular Devices scanner (SOFT-max program). High Affinity Binding to Receptors on L929-106 Cells Two laCi of 125I-TNFct (human recombinant, 30 mCi/tg New England Nuclear) or 125I-IL-1 (70-120[.t Ci/lxg,New England Nuclear) was added to confluency L929 cells for 90 min or 5 hr, respectively with 25, 50 and 100 tM of the test compounds 12]. The cells were washed repeatedly with isotonic saline, pH.7.2 and aliquots counted. Prostaglandin cylcooxygenase activity Mouse J774AI macrophages maintained in Dulbecco's modified Eagle's medium + 15% FCS + P/S. Cells (5 x 106) were incubated with agents (5 to 100 ].tM final concentration) and 3H-arachidonic acid (100 Ci/mol) for 60 min at 37C in a CO2 incubator. The reaction was terminated with 2N HCI, the mixture extracted 2 X with ether, and the organic layer evaporated.

[2] = tested on: IL-1 release from P388D1 macrophages; experiment: IL-1 release from P388D1 macrophages (L929 bioassay); assay type: cell-based, mouse; details: for IL-1 release, Percent of Control: over 18 hours, N=6
Description: as §1

[3] = tested on: TNFα release from IC-21 macrophages; experiment: TNFα release from IC-21 macrophages induced by LPS (L929 bioassay); assay type: cell-based, mouse; details: for TNFα release, Percent of LPS Control: 18 hours exposure to LPS, N=6
Description: as §1

[4] = tested on: IL-1 release from P388D1 macrophages; experiment: IL-1 release from P388D1 macrophages (L929 bioassay); assay type: cell-based, mouse; details: 5 μM, over 18 hours, N=6
[5] = target: T1, IL-2 high affinity receptor on HUT78 T lymphoma cell membrane (Homo sapiens, UniProt P01589+P14784); experiment: 125I-IL-2 high affinity binding to HuT78 T lymphoma cells; details: for 125I-IL-2 binding, Percent of Control: N=6
T1 construct: host or cells: HuT78 T lymphoma cells
T1 sequence (P01589 22-272): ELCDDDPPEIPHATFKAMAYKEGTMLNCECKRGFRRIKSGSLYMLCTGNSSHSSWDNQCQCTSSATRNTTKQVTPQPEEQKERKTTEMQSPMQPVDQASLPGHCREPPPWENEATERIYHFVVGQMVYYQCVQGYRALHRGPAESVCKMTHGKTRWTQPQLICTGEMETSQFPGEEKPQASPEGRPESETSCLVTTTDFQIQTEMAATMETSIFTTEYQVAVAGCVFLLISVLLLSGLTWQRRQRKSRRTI
T1 sequence (P14784 27-551): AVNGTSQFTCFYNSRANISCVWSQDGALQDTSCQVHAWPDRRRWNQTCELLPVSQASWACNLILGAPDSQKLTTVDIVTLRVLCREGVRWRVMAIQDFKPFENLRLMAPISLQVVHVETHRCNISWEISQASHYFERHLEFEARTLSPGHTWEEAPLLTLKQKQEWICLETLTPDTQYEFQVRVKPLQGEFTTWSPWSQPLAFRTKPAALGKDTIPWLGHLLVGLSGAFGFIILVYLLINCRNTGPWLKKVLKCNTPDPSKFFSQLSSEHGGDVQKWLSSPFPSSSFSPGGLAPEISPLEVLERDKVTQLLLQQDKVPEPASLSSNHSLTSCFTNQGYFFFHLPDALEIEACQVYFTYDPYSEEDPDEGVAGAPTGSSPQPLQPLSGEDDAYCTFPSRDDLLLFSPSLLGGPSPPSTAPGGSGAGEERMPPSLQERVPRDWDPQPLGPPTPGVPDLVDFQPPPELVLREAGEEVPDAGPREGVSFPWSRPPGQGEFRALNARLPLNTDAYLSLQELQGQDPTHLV

[6] = tested on: RPMI 1788 leukocytes adhesion to L929 fibroblasts; experiment: Adhesion of human leukocytes RPMI-1788 to confluent L929 fibroblasts; assay type: cell-based; details: for Adhesion, Percent of Control: N=6

`COc1c2cc(S(=O)(=O)[O-])cc1Cc1cc(S(=O)(=O)[O-])cc(c1OC)Cc1cc(S(=O)(=O)[O-])cc(c1OC)Cc1cc(S(=O)(=O)[O-])cc(c1OC)Cc1cc(S(=O)(=O)[O-])cc(c1OC)Cc1cc(S(=O)(=O)[O-])cc(c1OC)C2.[Na+].[Na+].[Na+].[Na+].[Na+].[Na+]` [Compound 6] was tested, and the “Percent Survival at 52 hr” value ([1]; 8 mg/Kg I.P.) was 50%, the “Percent Survival at 52 hr” value ([1]; 16 mg/Kg I.P.) was 100% and the “protection from LPS induced death” value ([1]; 16 mg/kg) was 100%. For the same compound, the “IL-1 release, Percent of Control” value ([2]; 12.5 μM) was 6 + 2% of Control, the “IL-1 release, Percent of Control” value ([2]; 25 μM) was 0% of Control and the “IL-1 release, Percent of Control” value ([2]; 50 μM) was 0% of Control. The “reduction of IL-1 release” value ([2]; 25 and 50 μM, 18 hr) was over 95%, the “TNFα release, Percent of LPS Control” value ([3]; 5 μM) was 118 + 7% of LPS Control and the “TNFα release, Percent of LPS Control” value ([3]; 12.5 μM) was 102 + 5% of LPS Control. The “TNFα release, Percent of LPS Control” value ([3]; 25 μM) was 86 + 6% of LPS Control, the “TNFα release, Percent of LPS Control” value ([3]; 50 μM) was 62 + 4% of LPS Control and the “reduction of TNFα release” value ([3]; 50 μM, 18 hr) was 38%. For the same compound, the “IL-1 release, Percent of Control” value [4] was 13 + 3% of Control, the “125I-IL-2 binding, Percent of Control” value ([5]; 5 μM, 2 Hours) was 142 + 6% of Control and the “125I-IL-2 binding, Percent of Control” value ([5]; 5 μM, 5 Hours) was 100 + 6% of Control. For the same compound, the “125I-IL-2 binding, Percent of Control” value ([5]; 12.5 μM, 2 Hours) was 115 + 5% of Control, the “125I-IL-2 binding, Percent of Control” value ([5]; 12.5 μM, 5 Hours) was 92 + 6% of Control and the “125I-IL-2 binding, Percent of Control” value ([5]; 25 μM, 2 Hours) was 85 + 5% of Control. For the same compound, the “125I-IL-2 binding, Percent of Control” value ([5]; 25 μM, 5 Hours) was 78 + 5% of Control, the “125I-IL-2 binding, Percent of Control” value ([5]; 50 μM, 2 Hours) was 81 + 4% of Control and the “125I-IL-2 binding, Percent of Control” value ([5]; 50 μM, 5 Hours) was 55 + 4% of Control. The “reduction of IL-2 high affinity binding” value ([5]; 50 μM, 5 hr) was 45%, the “Adhesion, Percent of Control” value ([6]; 5 μM, 60 min) was 46 + 4% of Control and the “Adhesion, Percent of Control” value ([6]; 5 μM, 90 min) was 62 + 5% of Control. For the same compound, the “Adhesion, Percent of Control” value ([6]; 12.5 μM, 2 Hours) was 125 + 5% of Control, the “Adhesion, Percent of Control” value ([6]; 12.5 μM, 5 Hours) was 92 + 4% of Control and the “Adhesion, Percent of Control” value ([6]; 12.5 μM, 60 min) was 49 + 6% of Control. For the same compound, the “Adhesion, Percent of Control” value ([6]; 12.5 μM, 90 min) was 55 + 6% of Control, the “Adhesion, Percent of Control” value ([6]; 25 μM, 2 Hours) was 100 + 6% of Control and the “Adhesion, Percent of Control” value ([6]; 25 μM, 5 Hours) was 95 + 5% of Control. For the same compound, the “Adhesion, Percent of Control” value ([6]; 25 μM, 60 min) was 30 + 3% of Control, the “Adhesion, Percent of Control” value ([6]; 25 μM, 90 min) was 71 + 5% of Control and the “Adhesion, Percent of Control” value ([6]; 50 μM, 2 Hours) was 108 + 6% of Control. The “Adhesion, Percent of Control” value ([6]; 50 μM, 5 Hours) was 88+ 7% of Control, the “Adhesion, Percent of Control” value ([6]; 50 μM, 60 min) was 41 + 5% of Control and the “reducing the adhesion of human leukocytes” value ([6]; 5 to 50 μM, at 2 and 5 hr) was “not effective”. The “reducing significantly the adhesion of human leukocytes” value ([6]; 5 to 50 μM, at 60 and 90 min) was “effective”.
